Measurements taken from the supplement of paper PMC10307832.

compound: COc1cc(-c2nn([C@H]3CC[C@H](N4CCN(C(C)=O)CC4)CC3)c3ncnc(N)c23)ccc1NC(=O)c1cc2ccccc2n1C + CC1(C)CCC(c2ccc(Cl)cc2)=C(CN2CCN(c3ccc(C(=O)NS(=O)(=O)c4ccc(N[C@H](CCN5CCOCC5)CSc5ccccc5)c(S(=O)(=O)C(F)(F)F)c4)cc3)CC2)C1 [Navitoclax] (partner 0.5 µM); experiment: relative viability (nuclei count vs DMSO), 5 days (fraction); higher = more cells survive; details: first compound 0.0128 µM
Summary of the method: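 Relative viability was taken as the ratio of nuclei in treated wells to nuclei in vehicle wells. Lung cancer cell lines in 1536-well plates received compounds by pin tool one day after seeding, either one drug alone or a fixed anchor-drug dose plus five library-drug doses (not always all listed) in √10 steps. Nuclei were counted on 4× images after 5 days of treatment, and values are medians of duplicate plates.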

Row | Cell Line | relative viability
1 | NCI-H727 | 0.408
2 | NCI-H1650 | 1.34
3 | EBC-1 | 0.422
4 | NCI-H1703 | 1.45
5 | NCI-H1993 | 0.898
6 | SW 1573 | 0.817
7 | NCI-H838 | 1.26
8 | NCI-H520 | 1.16
9 | NCI-H2126 | 0.858
10 | EMC-BAC-2 | 1.19
11 | NCI-H2085 | 1.16
12 | Calu-6 | 0.881
13 | HCC-366 | 1.09
14 | NCI-H1666 | 0.883
15 | NCI-H596 | 1.06
16 | LK-2 | 1.04
17 | NCI-H2087 | 1.03
18 | SK-MES-1 | 1.37
19 | H3255 | 0.398
20 | COR-L23 | 0.972
21 | IA-LM | 0.87
22 | ChaGo-K-1 | 0.958
23 | HCC-44 | 1.13
24 | A549 | 1.22
25 | NCI-H1299 | 1.06
26 | NCI-H1792 | 0.611

same assay, conditions: first compound 0.04048 µM

Row | Cell Line | relative viability
27 | NCI-H1650 | 1.5
28 | EBC-1 | 0.501
29 | NCI-H1703 | 1.17
30 | NCI-H1993 | 0.886
31 | SW 1573 | 1.02
32 | NCI-H838 | 1.18
33 | NCI-H520 | 1.06
34 | NCI-H2126 | 0.863
35 | EMC-BAC-2 | 1.08
36 | NCI-H2085 | 1.23
37 | Calu-6 | 0.983
38 | HCC-366 | 1
39 | NCI-H1666 | 0.805
40 | NCI-H596 | 1.02
41 | LK-2 | 0.861
42 | NCI-H2087 | 0.908
43 | SK-MES-1 | 1.39
44 | H3255 | 0.441
45 | COR-L23 | 1.29
46 | IA-LM | 1.08
47 | ChaGo-K-1 | 1.05
48 | HCC-44 | 0.913
49 | A549 | 1.22
50 | NCI-H1299 | 1.15
51 | NCI-H1792 | 0.499

same assay, conditions: first compound 0.128 µM

Row | Cell Line | relative viability
52 | NCI-H727 | 0.463
53 | NCI-H1650 | 1.44
54 | EBC-1 | 0.422
55 | NCI-H1703 | 0.736
56 | NCI-H1993 | 0.873
57 | SW 1573 | 1.02
58 | NCI-H838 | 1.23
59 | NCI-H520 | 0.995
60 | NCI-H2126 | 0.79
61 | EMC-BAC-2 | 1.15
62 | NCI-H2085 | 1.19
63 | Calu-6 | 0.817
64 | HCC-366 | 1.05
65 | NCI-H1666 | 0.806
66 | NCI-H596 | 0.911
67 | LK-2 | 0.621
68 | NCI-H2087 | 1.02
69 | SK-MES-1 | 1.14
70 | H3255 | 0.466
71 | COR-L23 | 0.9
